Measured values from patent US20260355196A1, “INHIBITORS AND DEGRADERS OF PIP4K PROTEIN” (Larkspur Biosciences, Inc., priority 2023, published 2026).

These compounds were tested against T1, PIP4K2C (Homo sapiens, UniProt Q8TBX8) (assay: HiBiT PIP4K2C degradation assay in MOLT-4 cells (endogenous PIP4K2C C-terminally tagged with HiBiT)). Settings: 6 hours of incubation time, rather than 24 hours; MOLT-4, top concentration 10 micromolar; read-out: HiBIT-degradation MOLT4 PIP4k2C DC50 (6 hours, marked *).
T1 sequence (Q8TBX8 1-421): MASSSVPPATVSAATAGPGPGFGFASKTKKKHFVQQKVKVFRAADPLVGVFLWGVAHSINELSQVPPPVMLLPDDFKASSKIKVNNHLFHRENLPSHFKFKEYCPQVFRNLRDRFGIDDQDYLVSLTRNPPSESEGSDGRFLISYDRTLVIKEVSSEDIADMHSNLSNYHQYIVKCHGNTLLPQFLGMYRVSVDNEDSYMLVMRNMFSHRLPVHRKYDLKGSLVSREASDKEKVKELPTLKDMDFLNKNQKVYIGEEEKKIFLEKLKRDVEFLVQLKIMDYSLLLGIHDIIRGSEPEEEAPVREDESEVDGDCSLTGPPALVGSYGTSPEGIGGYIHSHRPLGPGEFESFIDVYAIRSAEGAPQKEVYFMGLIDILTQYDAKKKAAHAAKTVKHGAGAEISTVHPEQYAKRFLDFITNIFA
Assay type: cell-based
Set-up: untagged in primary human PBMCs and monocyte-derived dendritic cells
How it was run: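 DC50 derived by Hill fit of luminescence from Nano-Glo HiBiT lytic detection. Cells were HiBiT knock-in MOLT-4 (C-terminal tag on endogenous PIP4K2C), exposed 6 h or 24 h at 37 C to compound, top concentration 10 micromolar, 3-fold steps, 10 points, duplicates.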

| SMILES | DC50 |
| --- | --- |
| O=C1CCC(Nc2ccc(N3CCN([C@H]4CC[C@H](NC(=O)[C@H]5CC[C@H](Nc6ncc(F)c(-c7cccc(-c8ccc[nH]c8=O)c7)n6)CC5)CC4)CC3)c(F)c2)C(=O)N1 (stereo partly drawn) [Compound 382, trans-N-(trans-4-(4-(4-((2,6-dioxopiperidin-3-yl)amino)-2-fluorophenyl)piperazin-1-yl)cyclohexyl)-4-((5-fluoro-4-(3-(2-oxo-1,2-dihydropyridin-3-yl)phenyl)pyrimidin-2-yl)amino)cyclohexane-1-carboxamide] | < 500 nM |
| Cn1nc(C2CCC(=O)NC2=O)c2ccc(N3CCN([C@H]4CC[C@H](NC(=O)[C@H]5CC[C@H](Nc6ncc(F)c(-c7cccc(-n8ccccc8=O)c7)n6)CC5)CC4)CC3)cc21 (stereo partly drawn) [Compound 383, trans-N-(trans-4-(4-(3-(2,6-dioxopiperidin-3-yl)-1-methyl-1H-indazol-6-yl)piperazin-1-yl)cyclohexyl)-4-((5-fluoro-4-(3-(2-oxopyridin-1(2H)-yl)phenyl)pyrimidin-2-yl)amino)cyclohexane-1-carboxamide] | < 500 nM |
| O=C1CCC(Nc2ccc(C3CCN(CC4CCN(C(=O)[C@H]5CC[C@H](Nc6ncc(F)c(-c7cccc(-c8ccc[nH]c8=O)c7)n6)CC5)CC4)CC3)c(F)c2)C(=O)N1 (stereo partly drawn) [Compound 384, trans-3-((3-fluoro-4-(1-((1-(4-((5-fluoro-4-(3-(2-oxo-1,2-dihydropyridin-3-yl)phenyl)pyrimidin-2-yl)amino)cyclohexane-1-carbonyl)piperidin-4-yl)methyl)piperidin-4-yl)phenyl)amino)piperidine-2,6-dione] | < 500 nM |
| O=C1CCC(Nc2ccc(N3CCC(CN4CCN(C(=O)[C@H]5CC[C@H](Nc6ncc(F)c(-c7cccc(-n8ccccc8=O)c7)n6)CC5)CC4)CC3)c(F)c2)C(=O)N1 (stereo partly drawn) [Compound 387, trans-3-((3-fluoro-4-(4-((4-(4-((5-fluoro-4-(3-(2-oxopyridin-1(2H)-yl)phenyl)pyrimidin-2-yl)amino)cyclohexane-1-carbonyl)piperazin-1-yl)methyl)piperidin-1-yl)phenyl)amino)piperidine-2,6-dione] | < 500 nM |
| Cn1nc(C2CCC(=O)NC2=O)c2ccc(N3CCN([C@H]4CC[C@H](C(=O)N[C@H]5CC[C@H](Nc6ncc(F)c(-c7cccc(-c8ccc[nH]c8=O)c7)n6)CC5)CC4)CC3)cc21 (stereo partly drawn) [Compound 389, trans-(1r,4R)-4-(4-(3-(2,6-dioxopiperidin-3-yl)-1-methyl-1H-indazol-6-yl)piperazin-1-yl)-N-((1r,4R)-4-((5-fluoro-4-(3-(2-oxo-1,2-dihydropyridin-3-yl)phenyl)pyrimidin-2-yl)amino)cyclohexyl)cyclohexane-1-carboxamide] | < 500 nM |
| Cn1nc(C2CCC(=O)NC2=O)c2ccc(C3CCN(CC4CCN(C(=O)[C@H]5CC[C@H](Nc6ncc(F)c(-c7cccc(-c8ccc[nH]c8=O)c7)n6)CC5)CC4)CC3)cc21 (stereo partly drawn) [Compound 391, trans-3-(6-(1-((1-(4-((5-fluoro-4-(3-(2-oxo-1,2-dihydropyridin-3-yl)phenyl)pyrimidin-2-yl)amino)cyclohexane-1-carbonyl)piperidin-4-yl)methyl)piperidin-4-yl)-1-methyl-1H-indazol-3-yl)piperidine-2,6-dione] | < 500 nM |
| O=C1CCC(Nc2ccc(N3CCN(CC4(O)CCN(C(=O)[C@H]5CC[C@H](Nc6ncc(F)c(-c7cccc(-n8ccccc8=O)c7)n6)CC5)CC4)CC3)c(F)c2)C(=O)N1 (stereo partly drawn) [Compound 392, trans-3-((3-fluoro-4-(4-((1-(4-((5-fluoro-4-(3-(2-oxopyridin-1(2H)-yl)phenyl)pyrimidin-2-yl)amino)cyclohexane-1-carbonyl)-4-hydroxypiperidin-4-yl)methyl)piperazin-1-yl)phenyl)amino)piperidine-2,6-dione] | < 500 nM |
| O=C1CCC(Nc2ccc(N3CCN(CC4CCN(C(=O)[C@H]5CC[C@H](Nc6ncc(F)c(-c7cccc(N8CCCCC8=O)c7)n6)CC5)CC4)CC3)c(F)c2)C(=O)N1 (stereo partly drawn) [Compound 393, trans-3-[3-fluoro-4-[4-[[1-[4-[[5-fluoro-4-[3-(2-oxo-1-piperidyl)phenyl]pyrimidin-2-yl]amino]cyclohexanecarbonyl]-4-piperidyl]methyl]piperazin-1-yl]anilino]piperidine-2,6-dione] | < 500 nM |
| O=C1CCC(Nc2ccc(C3CCN(CC4CCN(C(=O)[C@H]5CC[C@H](Nc6ncc(F)c(-c7cccc(N8CCCCC8=O)c7)n6)CC5)CC4)CC3)c(F)c2)C(=O)N1 (stereo partly drawn) [Compound 394, trans-3-((3-fluoro-4-(1-((1-(4-((5-fluoro-4-(3-(2-oxopiperidin-1-yl)phenyl)pyrimidin-2-yl)amino)cyclohexane-1-carbonyl)piperidin-4-yl)methyl)piperidin-4-yl)phenyl)amino)piperidine-2,6-dione] | < 500 nM |

The remaining lines, values ahead:

| DC50 | SMILES |
| --- | --- |
| < 500 nM | O=C1CCC(Nc2ccc(N3CCN([C@H]4CC[C@H](NC(=O)[C@H]5CC[C@H](Nc6ncc(F)c(-c7cccc(-n8ccccc8=O)c7)n6)CC5)CC4)CC3)c(F)c2)C(=O)N1 (stereo partly drawn) [Compound 381, trans-(1r,4R)—N-((1r,4R)-4-(4-(4-((2,6-dioxopiperidin-3-yl)amino)-2-fluorophenyl)piperazin-1-yl)cyclohexyl)-4-((5-fluoro-4-(3-(2-oxopyridin-1(2H)-yl)phenyl)pyrimidin-2-yl)amino)cyclohexane-1-carboxamide] |
| < 500 nM | Cn1nc(C2CCC(=O)NC2=O)c2ccc(C3CCN(CC4CCN(C(=O)[C@H]5CC[C@H](Nc6ncc(F)c(-c7cccc(-n8ccccc8=O)c7)n6)CC5)CC4)CC3)cc21 (stereo partly drawn) [Compound 385, trans-3-(6-(1-((1-(4-((5-fluoro-4-(3-(2-oxopyridin-1(2H)-yl)phenyl)pyrimidin-2-yl)amino)cyclohexane-1-carbonyl)piperidin-4-yl)methyl)piperidin-4-yl)-1-methyl-1H-indazol-3-yl)piperidine-2,6-dione] |
| < 500 nM | Cn1nc(C2CCC(=O)NC2=O)c2ccc(N3CCN([C@H]4CC[C@H](C(=O)N[C@H]5CC[C@H](Nc6ncc(F)c(-c7cccc(-n8ccccc8=O)c7)n6)CC5)CC4)CC3)cc21 (stereo partly drawn) [Compound 388, trans-4-(4-(3-(2,6-dioxopiperidin-3-yl)-1-methyl-1H-indazol-6-yl)piperazin-1-yl)-N-(trans-4-((5-fluoro-4-(3-(2-oxopyridin-1(2H)-yl)phenyl)pyrimidin-2-yl)amino)cyclohexyl)cyclohexane-1-carboxamide] |
| < 500 nM | O=C1CCC(Nc2ccc(C3CCN(CC4CCN(C(=O)[C@H]5CC[C@H](Nc6ncc(F)c(-c7cccc(-n8ccccc8=O)c7)n6)CC5)CC4)CC3(F)F)c(F)c2)C(=O)N1 (stereo partly drawn) [Compound 390, trans-3-[4-[3,3-difluoro-1-[[1-[4-[[5-fluoro-4-[3-(2-oxo-1-pyridyl)phenyl]pyrimidin-2-yl]amino]cyclohexanecarbonyl]-4-piperidyl]methyl]-4-piperidyl]-3-fluoro-anilino]piperidine-2,6-dione] |

Same assay, conditions: 24 hours incubation, MOLT-4, top concentration 10 micromolar; read-out: HiBIT-degradation MOLT4 PIP4k2C 24 hours DC50

| DC50 | SMILES |
| --- | --- |
| < 500 nM | O=C1CCC(Nc2ccc(N3CCC(N4CC5(CC(OC(=O)N[C@H]6CC[C@H](Nc7ncc(F)c(-c8cccc(-n9ccccc9=O)c8)n7)CC6)C5)C4)CC3)c(F)c2)C(=O)N1 (stereo partly drawn) [Compound 377, trans-2-(1-(4-((2,6-dioxopiperidin-3-yl)amino)-2-fluorophenyl)piperidin-4-yl)-2-azaspiro[3.3]heptan-6-yl (4-((5-fluoro-4-(3-(2-oxopyridin-1(2H)-yl)phenyl)pyrimidin-2-yl)amino)cyclohexyl)carbamate] |
| < 500 nM | O=C1CCC(n2c(=O)oc3cc(N4CCC(CN5CCN(CC(=O)N6CCC(Nc7ncc(F)c(-c8cccc(-n9ccccc9=O)c8)n7)CC6)CC5)CC4)ccc32)C(=O)N1 (centres unmarked) [Compound 378, 3-(6-(4-((4-(2-(4-((5-fluoro-4-(3-(2-oxopyridin-1(2H)-yl)phenyl)pyrimidin-2-yl)amino)piperidin-1-yl)-2-oxoethyl)piperazin-1-yl)methyl)piperidin-1-yl)-2-oxobenzo[d]oxazol-3 (2H)-yl)piperidine-2,6-dione] |
| < 500 nM | O=C1CCC(n2c(=O)oc3cc(C4CCN(CC5CCN(CC(=O)N6CCC(Nc7ncc(F)c(-c8cccc(-c9ccc[nH]c9=O)c8)n7)CC6)CC5)CC4)ccc32)C(=O)N1 (centres unmarked) [Compound 379, 3-[6-[1-[[1-[2-[4-[[5-fluoro-4-[3-(2-oxo-1H-pyridin-3-yl)phenyl]pyrimidin-2-yl]amino]-1-piperidyl]-2-oxo-ethyl]-4-piperidyl]methyl]-4-piperidyl]-2-oxo-1,3-benzoxazol-3-yl]piperidine-2,6-dione] |
| < 500 nM | O=C1CCC(n2c(=O)oc3cc(N4CCC(CN5CCC(O)(CC(=O)N6CCC(Nc7ncc(F)c(-c8cccc(-n9ccccc9=O)c8)n7)CC6)CC5)CC4)ccc32)C(=O)N1 (centres unmarked) [Compound 380, 3-(6-(4-((4-(2-(4-((5-fluoro-4-(3-(2-oxopyridin-1(2H)-yl)phenyl)pyrimidin-2-yl)amino)piperidin-1-yl)-2-oxoethyl)-4-hydroxypiperidin-1-yl)methyl)piperidin-1-yl)-2-oxobenzo[d]oxazol-3 (2H)-yl)piperidine-2,6-dione] |
